Data on 17 compounds can be found in US9296720B2, “Carboxamide-substituted heteroaryl-pyrazoles and the use thereof” (AiCuris GmbH & Co. KG, priority 2011, dated 2016).

The subject of assay [1] is HIV-1NL4-3 K103N-Y181C. Nature of the assay: Luminescence reduction assay, MT4 cells infected with HIV-1NL4-3 luciferase reporter virus, RT mutant K103N-Y181C. Format: cell-based. Particulars: Human immunodeficiency virus 1, MT4, read-out: EC50 (μM) MT4 Cells HIV-1NL4-3 K103N-Y181C 2% FCS, MT4 cells, HIV-1NL4-3 K103N-Y181C, 2% FCS. Put shortly:
(§1)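 Compound dilution series in 1% DMSO, with 2% or 10% FCS, incubated 5 days at 37° C/5% CO2 with MT4 cells previously pellet-infected (2 h) by luciferase reporter NL4-3 virus, wild type or carrying RT resistance mutations. EC50 taken where luminescence from secreted luciferase falls to 50% of untreated infected control.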
(In general: A reporter such as luciferase makes a cellular process visible.)

Assay [2] relates to HIV-1NL4-3 Wild Type. Nature of the assay: Luminescence reduction assay, MT4 cells infected with HIV-1NL4-3 luciferase reporter virus, wild type. Format: cell-based. The settings on record: Human immunodeficiency virus 1, MT4, MT4 cells, 2% FCS. In a few lines: as §1
The target in assay [3] is T1, reverse transcriptase (Human immunodeficiency virus type 1 group M subtype B, UniProt P04585).
T1 construct: negative control (batch without reverse transcriptase); purchased Roche Diagnostics GmbH, Mannheim, Germany
Nature of the assay: Biochemical reverse transcriptase assay (Reverse Transcriptase Assay, colorimetric, Roche). The settings on record: colorimetric RT assay, DMSO 1%. On the procedure:
The “Reverse Transcriptase Assay, colorimetric” (Roche Diagnostics GmbH, Mannheim, Germany) is used according to manufacturers' instructions. The test substances are dissolved in DMSO and used in diluted form in the test in the five steps (DMSO final concentration: 1%). The resulting values of the photometric analysis (405/492 nm) are smaller than 0.1 in the negative control (batch without reverse transcriptase) and are in the range of 1.5 in the positive control (batch without test substance). The IC50 values of the test substances are determined as the concentration of the test substance dilution, in which the measured optical density is 50% of the positive control.

The test system of assay [4] is HIV-1LAI Wild Type. Briefly: AlamarBlue viability assay, HIV-1LAI-infected MT4 cells. The format is cell-based. The settings on record: Human immunodeficiency virus 1, MT4, MT4 cells, 10% FCS. Put shortly: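 MT4 cells infected with HIV-1LAI (MOI 0.01, supernatant infection) cultured 5 days at 37 °C with compounds in RPMI with 2% or 10% FCS, 1% DMSO final. AlamarBlue fluorescence after 3 h; EC50 as 50% protection relative to uninfected cells, CC50 from high-concentration cytotoxicity.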
For orientation: Resazurin is reduced to fluorescent resorufin, in cell work by metabolically active cells.

As for `O=C1CN(C(=O)c2cc(-c3cc(Br)cc(OC(F)(F)F)c3)n(-c3cccnc3)n2)CN1` [Example 28, 1-({5-[3-Bromo-5-(trifluoromethoxy)phenyl]-1-(pyridin-3-yl)-1H-pyrazol-3-yl}carbonyl)imidazolidin-4-one], the EC50 (as a rule, the concentration at which the effect is half-maximal) in assay [1] amounted to 0.005 µM; in assay [2], 0.005 µM; in assay [4] it was 0.044 µM. Half-maximal inhibition in assay [3] (IC50) required 213 nM.
On to `O=C1CN(C(=O)c2cc(-c3cc(Br)cc(OC(F)(F)F)c3)n(-c3ccnc(Cl)c3)n2)CCN1` [Example 49, 4-({5-[3-Bromo-5-(trifluoromethoxy)phenyl]-1-(2-chloropyridin-4-yl)-1H-pyrazol-3-yl}carbonyl)piperazin-2-one], for which the values for the EC50 in assay [1], in assay [2] and in assay [4] were 0.038 µM, 0.008 µM and 0.23 µM, respectively. Besides, 758 nM corresponded to half-maximal inhibition in assay [3] (IC50).
The corresponding values for `O=C1CN(C(=O)c2cc(-c3cc(F)cc(OC(F)(F)F)c3)n(-c3cccnc3)n2)CCN1` [Example 58] are 1.09 µM, 0.204 µM, 0.955 µM and 56 nM.
The corresponding values for `O=C(c1cc(-c2cc(Cl)cc(OC(F)F)c2)n(-c2cccnc2)n1)N1CCS(=O)(=O)C1` [Example 83, {5-[3-Chloro-5-(difluoromethoxy)phenyl]-1-(pyridin-3-yl)-1H-pyrazol-3-yl}(1,1-dioxido-1,3-thiazolidin-3-yl)methanone] are 0.168 µM, 0.008 µM, 0.089 µM and 65 nM.
On to `O=C1CN(C(=O)c2cc(-c3cncc(OC(F)F)c3)n(-c3ccc(F)c(Cl)c3)n2)CN1` [Example 105, 1-({1-(3-Chloro-4-fluorophenyl)-5-[5-(difluoromethoxy)pyridin-3-yl]-1H-pyrazol-3-yl}carbonyl)imidazolidin-4-one], for which the EC50 worked out at 0.007 µM in assay [1], 0.018 µM in assay [2] and 0.116 µM in assay [4].
The corresponding values for `O=C1CN(C(=O)c2cc(-c3cncc(C(F)(F)F)c3)n(-c3ccc(F)c(Cl)c3)n2)CN1` [Example 106, 1-({1-(3-Chloro-4-fluorophenyl)-5-[5-(trifluoromethyl)pyridin-3-yl]-1H-pyrazol-3-yl}carbonyl)imidazolidin-4-one] are 0.12 µM, 0.082 µM and 0.084 µM.
Take `O=C1CN(C(=O)c2cc(-c3cncc(C(F)(F)F)c3)n(-c3ccc(F)c(Cl)c3)n2)CCN1` [Example 107]: the EC50 in assay [1] was found to be 1.28 µM; in assay [2], 0.299 µM; in assay [4], 0.263 µM.
Consider `O=C1CN(C(=O)c2cc(-c3cncc(C(F)(F)F)c3)n(-c3cccc(Cl)c3)n2)CN1` [Example 108, 1-({1-(3-Chlorophenyl)-5-[5-(trifluoromethyl)pyridin-3-yl]-1H-pyrazol-3-yl}carbonyl)imidazolidin-4-one], for which the values for the EC50 in assay [1], in assay [2] and in assay [4] were 0.093 µM, 0.052 µM and 0.036 µM, respectively.
The corresponding values for `O=C1CN(C(=O)c2cc(-c3cncc(C(F)(F)F)c3)n(-c3cccc(Cl)c3)n2)CCN1` [Example 109, 4-({1-(3-Chlorophenyl)-5-[5-(trifluoromethyl)pyridin-3-yl]-1H-pyrazol-3-yl}carbonyl)piperazin-2-one] are 0.768 µM, 0.232 µM and 0.246 µM.
Take `O=C1CN(C(=O)c2cc(-c3cnc(F)c(Cl)c3)n(-c3cccc(Cl)c3)n2)CN1` [Example 110, 1-{[5-(5-Chloro-6-fluoropyridin-3-yl)-1-(3-chlorophenyl)-1H-pyrazol-3-yl]carbonyl}imidazolidin-4-one]: the 50% effective concentration (EC50) in assay [1] came out at 0.039 µM; in assay [2], 0.024 µM; in assay [4], 0.025 µM.
The corresponding values for `O=C1CN(C(=O)c2cc(-c3cnc(F)c(Cl)c3)n(-c3ccc(F)c(Cl)c3)n2)CN1` [Example 111, 1-{[1-(3-Chloro-4-fluorophenyl)-5-(5-chloro-6-fluoropyridin-3-yl)-1H-pyrazol-3-yl]carbonyl}imidazolidin-4-one] are 0.173 µM, 0.03 µM and 0.024 µM.
For `O=C1CN(C(=O)c2cc(-c3ccnc(Cl)c3)n(-c3ccc(F)c(Cl)c3)n2)CN1` [Example 112, 1-{[1-(3-Chloro-4-fluorophenyl)-5-(2-chloropyridin-4-yl)-1H-pyrazol-3-yl]carbonyl}imidazolidin-4-one] the same measures were 0.03 µM, 0.016 µM and 0.079 µM.
For `O=C1CN(C(=O)c2cc(-c3ccnc(Cl)c3)n(-c3ccc(F)c(Cl)c3)n2)CCN1` [Example 113, 4-{[1-(3-Chloro-4-fluorophenyl)-5-(2-chloropyridin-4-yl)-1H-pyrazol-3-yl]carbonyl}piperazin-2-one] the same measures were 0.298 µM, 0.025 µM and 0.233 µM.
For the compound `O=C1CN(C(=O)c2cc(-c3ccnc(Cl)c3)n(-c3cccc(Cl)c3)n2)CN1` [Example 114, 1-{[1-(3-Chlorophenyl)-5-(2-chloropyridin-4-yl)-1H-pyrazol-3-yl]carbonyl}imidazolidin-4-one], the EC50 was found to be 0.171 µM in assay [1], 0.007 µM in assay [2] and 0.063 µM in assay [4].
For `O=C1CN(C(=O)c2cc(-c3ccnc(Cl)c3)n(-c3cccc(Cl)c3)n2)CCN1` [Example 115, 4-{[1-(3-Chlorophenyl)-5-(2-chloropyridin-4-yl)-1H-pyrazol-3-yl]carbonyl}piperazin-2-one], the EC50 was found to be 1.09 µM in assay [1], 0.027 µM in assay [2] and 0.352 µM in assay [4].
For `O=C1CN(C(=O)c2cc(-c3cc(Br)cc(OC(F)(F)F)c3)n(-c3ccnc(C(F)(F)F)c3)n2)CCN1` [Example 116, 4-({5-[3-Bromo-5-(trifluoromethoxy)phenyl]-1-[2-(trifluoromethyl)pyridin-4-yl]-1H-pyrazol-3-yl}carbonyl)piperazin-2-one] the same measures were 0.896 µM, 0.648 µM and above 3.3 µM.
For `O=C(c1cc(-c2cc(Br)cc(OC(F)(F)F)c2)n(-c2ccnc(C(F)(F)F)c2)n1)N1CCSC1` [Example 117, {5-[3-Bromo-5-(trifluoromethoxy)phenyl]-1-[2-(trifluoromethyl)pyridin-4-yl]-1H-pyrazol-3-yl}(1,3-thiazolidin-3-yl)methanone] the same measures were at least 3.3 µM, 1.28 µM and above 3.3 µM.
